According to patent publication US20120064020A1, “NOVEL COMPOSITION” (priority 2009, published 2012):

Test system: IL-8
Assay: Expression of IL-8 by epidermal human skin model (EST-1000) after IL-1alpha stimulation
Type: cell-based
Details: Table 7, 2 wt.-% in vehicle
Experimental: The Expression of IL-8 by epidermal human skin model after IL-1alpha stimulation has been assessed using 3D-Reconstituted Epidermis Models (EST-1000) (Cellsystems GmbH, St. Katharinen, Germany). The EST-1000 samples were equilibrated over night at 37° C. in a 5% CO^2 atmosphere according to manufacturer's instructions. Then, the EST-1000 samples were stimulated by addition of 10 ng/ml IL-1alpha (Peprotech, UK) to the culture medium.
Afterwards, one sample was treated with the vehicle (i.e. squalane, e.g. commercially available under the tradename Fitoderm®), whereas the other sample was treated with a mixture consisting of the vehicle comprising 2 wt.-% of the mixture of example 1 by topical addition to the tissue samples. At distinct time points, 200 ul medium samples were taken and frozen for further analysis. As can be retrieved from the results presented in table, the expression of the pro-inflammatory cytokine IL-8 by the epidermal human skin model (EST-1000) is suppressed by the addition of the composition according to example 1 in a dose dependent manner.
Furthermore, the expression of IL-8 by epidermal human skin model after IL-1alpha stimulation was assessed as outlined above using the single compounds CLA, Syn Coll®, spent grain wax as well as mixtures thereof.

Substance: Conjugated linoleic acid [CLA]
- Expression of cytokine IL-8, T = 24 h (T = 24 h): 8161
- Expression of cytokine IL-8, t = 0 h (t = 0 h): 61
- Expression of cytokine IL-8, t = 2 h (t = 2 h): 2536
- Expression of cytokine IL-8, t = 4 h (t = 4 h): 5056
- Expression of cytokine IL-8, t = 8 h (t = 8 h): 5805
